“Also recorded” adds a separate entry of the source.
Experiments:
3T3-LI mature adipocytes = test: Oil Red O staining of lipid accumulation in adipocytes; assay type: cell-based, murine; conditions: for number and size / morphology of lipid droplets vs. non-treated control: Oil Red O micrographs, peptides at 100 μM, Day 21, three times per week for three weeks; for reduction of lipid accumulation / lipid contents (in words): murine-based in vitro systems, mature adipocytes; for decrease in degree of lipid accumulation: quantitative Oil Red O analysis, Day 21
Description: FIG. 2A-G: Representative photomicrographs showing Oil Red O-stained mature adipocytes treated with peptides at 100 μM (Day 21). H: Quantitative analysis of the lipids accumulated in the adipocytes (Day 21). Control absorbance: 0.526 (Red line). I: Relative cell counts on day 21.
The effects of the minimal short peptides in blocking lipid accumulation in adipocytes were compared with their parent full-length peptide. After generating five different 3 amino acid fragments (KGG, GGR, GRA, RAK, and AKD) from the original ATS peptide (KGGRAKD (SEQ ID NO:1)), each peptide was administered to 3T3-LI pre-adipocytes in five varying concentrations. Peptides were treated to the adipocytes three times per week for three weeks. Oil Red O staining was utilized to assess the lipid contents in mature adipocytes in culture. The morphological characteristics of 3T3-LI mature adipocytes were observed by microscopy. […] Furthermore, the lipids were quantitatively analyzed. […] At the end point, the cell number was almost the same across the treatment groups, meaning that the reduction in lipid accumulation is not a consequence of toxicity of the peptides (FIG. 2I).
The number of viable cells is counted prior to Oil Red O staining using Cell Counting Kit 8 (Dojindo). This cell viability study allows one to determine potential toxicities of the peptides and compensate for cell number variation-causing artifacts. Oil Red O is dissolved in isopropanol at […] to create a working solution. 12 ml of Oil Red O working solution is mixed with 8 ml dH2O and incubated for 10 minutes. This solution is then filtered using a 0.2 μm syringe filter. Adipocytes seeded on 96-well plates are washed with PBS twice. 10% formaldehyde is added for initial fixation and the plates are incubated for at least 30 minutes. The formaldehyde is removed and the cells are once again washed twice, this time with dH2O. 60% isopropanol is added to each well. The plates are incubated for 5 minutes. The isopropanol is removed from the wells and replaced with Oil Red O working solution. The plates are incubated for an additional 10 minutes. The Oil Red O solution is removed and washed four times with dH2O. Lastly, digital micrographs of the lipid droplets in adipocytes are taken using a light microscope. After the staining protocol, all plates are washed three times with 60% isopropanol. Each time, 5 minutes of gentle rocking was used. The Oil Red O is extracted with 100% isopropanol with gentle rocking for 5 minutes. 200 μl isopropanol per well is used as a background to measure absorbance at 492 nm using a BioTek microplate reader.

prohibitin = target: T1, prohibitin (Mus musculus, UniProt P67778); test: ATS/prohibitin binding by ATS magnetic bead immunoprecipitation and western blot; conditions: fractionated proteins from adipocytes incubated with ATS magnetic beads, western blot
T1 construct: Fractionated proteins isolated from adipocytes were incubated with the ATS magnetic beads; endogenous in cells; probably 3T3-L1
T1 sequence (P67778 2-272 limits assumed): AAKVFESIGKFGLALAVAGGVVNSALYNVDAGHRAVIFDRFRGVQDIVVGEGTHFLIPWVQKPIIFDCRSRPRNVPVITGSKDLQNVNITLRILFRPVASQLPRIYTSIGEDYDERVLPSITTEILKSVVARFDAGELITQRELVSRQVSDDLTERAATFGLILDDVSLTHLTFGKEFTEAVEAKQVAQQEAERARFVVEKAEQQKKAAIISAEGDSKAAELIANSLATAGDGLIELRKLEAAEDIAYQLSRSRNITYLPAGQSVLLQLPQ
From the text: FIG. 1A: ATS/prohibitin binding determined by immunoprecipitation and western blot. FIG. 1B: Location and degree of prohibitin expression in pre- or mature adipocytes. PM, plasma membrane; Cyt, Cytoplasm. C: Confocal micrographs showing the location of prohibitin in mature- or pre-adipocytes.
It was confirmed that prohibitin shifts its location to the cell membrane as adipogenesis progresses and ATS binds to prohibition. The ATS/prohibitin binding was verified in pre- or mature adipocytes (Won, Y. W. et al. Nat Mater 13, 1157-1164, (2014)). Fractionated proteins isolated from adipocytes were incubated with the ATS magnetic beads and the protein captured by ATS was identified by western blotting. […] Prohibitin is observed in several intracellular locations at varying expression levels depending on the degree of adipogenesis (Wang, P. et al. Cell Mol Life Sci 61, 2405-2417, (2004); Patel, N. et al. Proceedings of the National Academy of Sciences of the United States of America 107, 2503-2508, (2010)). The degree and location of prohibitin expression in pre- or mature adipocytes was determined. […] Confocal microscopy also verified the prohibitin expression on the cell membrane of mature adipocytes (FIG. 1C). High-level prohibitin expression on the cell membrane of mature adipocytes is important to the ATS/prohibitin interaction.

[1] = system: epididymal fat tissues of DIO mice; test: Histological analysis of fat pads (adipocyte number and size); assay type: in vivo
Description: FIG. 9. Histological analysis fat pads. An automated system detected and counted adipocytes (yellow line). Adipocyte number and size: average of 3 hpf images from 2 mice (total 6 images/group).
GGR, RAK, and AKD peptides were tested in OPM and OM mice by oral administration. […] In obesity progression, adipocytes increase in both number and size due to escalating lipid accumulation (Parlee, S. D., et al., Methods Enzymol 537, 93-122, (2014)). Using the methods described above, abdominal fat pads of GGR, RAK, AKD, or PBS-treated DIO mice were histologically analyzed. Epididymal fat tissues were harvested from two mice per experimental group. All samples were fixed in 4% paraformaldehyde, H&E-stained, and imaged. At a 10× magnification, adipocyte cell counting was performed on the digital slide images using an automated adipocyte counting macro with the ImageJ software. A default thresholding method was used and [cell] sizing boundaries of 40-40,000 were set. Limitations of the segmentation tool led to some erroneous selections or regions of interest (ROI), which were manually corrected by adding or erasing lines. The number of cells per representative field were then determined using the ROI manager in ImageJ. Two or three high power fields (hpf) per tissue and two tissue samples per group were analyzed to reduce variability. Average cell count for each group was calculated accordingly. Areas of all adipocytes of interest were measured using the ROI measurement tool (ImageJ) and average area per cell was calculated accordingly.
The primary function of adipocytes is to store energy in the form of lipids. The volume of lipid stored in an adipocyte cell increases as the third power of the diameter. Because mature adipocytes are composed of large lipid droplets that are surrounded by very thin cytoplasmic layers, the increase in volume of an adipocyte cell likely indicates increased lipid storage. Thus, smaller adipocyte size/area translates to reduced lipid accumulation.

[2] = system: DIO mice, obesity model (OM); test: Body weight in mice that had already developed obesity (obesity model, OM); assay type: in vivo; conditions: OM (post-obese) mice
Description: (§1) FIG. 5A-F: IP Post-obese Body Weight. Relative body weight measurements for IP injected post-obese mice. G-H: Body weight change. Changes in body weight compared using HFD control group as baseline value. A1-F1: GTT. Blood glucose levels of peptide groups at endpoint, post-glucose injection (after 16 h fasting). A2-F2: ITT. Blood glucose levels of peptide groups at endpoint, post-insulin injection (after 6 h fasting).
as §1, with “6A-F: SC” for “5A-F: IP”, “SC” for “IP”, “A1-D1,F1:” for “A1-F1:”, “A2-D2,F2:” for “A2-F2:”
(§2) FIG. 8A-F: Oral/Feeding Post-obese Body Weight. Relative body weight measurements for orally administered post-obese mice. A1-F1: GTT. Blood glucose levels at endpoint, post-glucose injection (after 16 h fasting). A2-F2: ITT. Blood glucose levels at endpoint, post-insulin injection (after 6 h fasting).
(§3) In the first phase, peptides were tested on pre-obese mice that were being fed high fat diet (HFD) to induce obesity (obesity progression model, OPM). In the second phase, these peptides were given to mice that had already developed obesity (obesity model, OM). […] As the activity of these three peptides varies depending on the injection route and the disease status, all three peptides, GGR, RAK, and AKD, were tested by oral administration.
The second phase signified the post-obesity stage, where the same methods from phase 1 were used on OM mice.

[3] = system: DIO mice, obesity progression model (OPM); test: Body weight in pre-obese mice fed high fat diet (obesity progression model, OPM); assay type: in vivo; conditions: for anti-obesity efficacy (body weight): oral administration
Description: as §1, with “3A-H:” for “5A-F:”, “Preobese” for “Post-obese”, “pre-obese” for “post-obese”, “I-J:” for “G-H:”, “value” for “value.”
as §1, with “4A-F: SC Pre-obese” for “5A-F: IP Post-obese”, “SC” for “IP”, “pre-obese” for “post-obese”
as §2, with “7A-F:” for “8A-F:”, “Pre-obese” for “Post-obese”, “pre-obese” for “post-obese”
Prior to oral administration, peptides were administered to DIO mice via intraperitoneal (IP) and subcutaneous (SC) injections. This study was divided into two phases:
as §3
Prior to oral administration, GGR, RAK, AKD, full-length ATS, and scrambled RKG peptides were administered to OPM mice via IP and SC injections to further screen an ideal peptide composition. PBS was included as a vehicle group. GGR, RAK, and AKD peptides were discovered to impede body weight gain in OPM mice. GGR and RAK were effective when given IP injections and AKD was effective by SC injections (FIGS. 3, 4).

| Substance | number and size / morphology of lipid droplets vs. non-treated control (3T3-LI mature adipocytes) | prevention of body weight gain ([2]; IP injections) | prevention of body weight gain ([2]; SC injections) | prevention of body weight gain ([3]; IP injections) | reduction of lipid accumulation / lipid contents (in words) (3T3-LI mature adipocytes) | decrease in degree of lipid accumulation (3T3-LI mature adipocytes) | further results |
| --- | --- | --- | --- | --- | --- | --- | --- |
| GRA | moderate differences in the morphology of lipid droplets | – | – | – | – | – | – |
| KGGRAKD (SEQ ID NO:1) [ATS, parent full-length peptide, reference compound] | smaller than those in the non-treated control | – | – | – | – | – | ATS/prohibitin binding (prohibitin): specifically binds to prohibitin |
| RAK | smaller than those in the non-treated control | positive effects on prevention of body weight gain | effective | positive effects on prevention of body weight gain; also recorded: effective | able to reduce lipid contents in mature Adipocytes; also recorded: effective in reducing lipid accumulation | approximately 20% | activity by histological analysis of the fat pads ([1]; DIO mice): more active than GGR; also recorded: highest efficacy; average cell count per field ([1]; H&E-stained epididymal fat, 10× magnification, among GGR, RAK, AKD, PBS groups): highest average cell count per field; average adipocyte area per cell ([1]; H&E-stained epididymal fat, among GGR, RAK, AKD, PBS groups): lowest average adipocyte area per cell; anti-obesity efficacy (body weight) ([2]; oral administration): has anti-obesity efficacy in both models; anti-obesity efficacy (body weight) [3]: efficacious over GGR; also recorded: has anti-obesity efficacy in both models |
| GGR | smaller than those in the non-treated control | positive effects on prevention of body weight gain | effective | positive effects on prevention of body weight gain; also recorded: effective | able to reduce lipid contents in mature Adipocytes; also recorded: effective in reducing lipid accumulation | approximately 20% | – |
| KGG | moderate differences in the morphology of lipid droplets | – | – | – | – | – | – |
| RKG [reference compound] | – | did not show meaningful efficacy over the vehicle group; also recorded: no anti-obesity effects | no anti-obesity effects | did not show meaningful efficacy over the vehicle group; also recorded: no anti-obese effects; also recorded: no anti-obesity effects | – | – | prevention of body weight gain ([3]; SC injections): no anti-obese effects; also recorded: no anti-obesity effects |
| AKD | smaller than those in the non-treated control | – | – | – | able to reduce lipid contents in mature Adipocytes; also recorded: effective in reducing lipid accumulation | approximately 20% | prevention of body weight gain ([3]; SC injections): best working peptide; also recorded: effective; anti-obesity efficacy (body weight) [3]: efficacious over GGR |

Source: US20240238362A1, “ANTI-OBESITY PEPTIDES AND USES THEREOF” (Arizona Board of Regents on Behalf of the University of …, priority 2020, published 2024)
